From patent US12157730B2, “Heteroaryl derivative, method for producing same, and pharmaceutical composition comprising same as effective component” (VORONOI INC., priority 2019, dated 2024)

Target: T1, Ba/F3 cell EGFR Exon20 ins NPH (Homo sapiens, UniProt P00533, INS773NPH)
T1 construct: expressed in transfected cells; host or cells: Ba/F3
Assay: Ba/F3 cell proliferation suppression, EGFR Exon20 ins NPH
Format: cell-based
Conditions: GI50 class; Ba/F3 cell line with NPH inserted at Exon20 of EGFR; 72 hours
How it was run: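 Growth suppression determined as GI50 following 72 h exposure across 12 concentrations up to 50 um, with viability by luminescent ATP assay (CellTiter-Glo).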

Row | Ba/F3 (NPH) Activity | SMILES
1 | A (GI50 < 50 nM) | C=CC(=O)Nc1cc(Nc2cc(N3OCC[C@@H]3c3cc(F)cc(F)c3)ncn2)c(OC)cc1N1CCC(N2CCN(C3CC3)C(C)(C)C2)CC1 [Example 106, N-(2-(4-(4-cyclopropyl-3,3-dimethylpiperazine-1-yl)piperidine-1-yl)-5-((6-((R)-3-(3,5-difluorophenyl)isoxazolidine-2-yl)pyrimidine-4-yl)amino)-4-methoxyphenyl) acrylamide]
2 | B (50 nM ≤ GI50 < 500 nM) | C=CC(=O)Nc1cc(Nc2cc(N3OCC[C@@H]3c3cccc(Cl)c3Cl)ncn2)c(OC)cc1N1CCN(C2CCN(C)CC2)CC1 [compound 562, N-(5-((6-((R)-3-(2,3-dichlorophenyl)isoxazolidine-2-yl)pyrimidine-4-yl)amino)-4-methoxy-2-(4-(1-methylpiperidine-4-yl)piperazine-1-yl)phenyl) acrylamide]
3 | A (GI50 < 50 nM) | C=CC(=O)Nc1cc(Nc2cc(N3OCC[C@@H]3c3ccc(Cl)c(Cl)c3)ncn2)c(OC)cc1N1C[C@@H]2C[C@H]1CN2C [compound 684, N-(5-((6-((R)-3-(3,4-dichlorophenyl)isoxazolidine-2-yl)pyrimidine-4-yl)amino)-4-methoxy-2-((1S,4S)-5-methyl-2,5-diazabicyclo[2.2.1]heptane-2-yl)phenyl) acrylamide]
4 | C (500 nM ≤ GI50 < 5000 nM) | C=CC(=O)Nc1cc(Nc2cc(N3OCCC3(C)c3ccccc3)ncn2)c(OC)cc1N1CCC(N2CCN(CC)CC2)CC1 (stereo not drawn) [Example 261, N-(2-(4-(4-ethylpiperazine-1-yl)piperidine-1-yl)-4-methoxy-5-((6-(3-methyl-3-phenylisoxazolidine-2-yl)pyrimidine-4-yl)amino)phenyl) acrylamide]
5 | A (GI50 < 50 nM) | C=CC(=O)Nc1cc(Nc2cc(N3OCC[C@@H]3c3cccc(Cl)c3)ncn2)c(OC)cc1N1CCC(N2CCOCC2)CC1 [compound 417, N-(5-((6-((R)-3-(3-chlorophenyl)isoxazolidine-2-yl)pyrimidine-4-yl)amino)-4-methoxy-2-(4-morpholinopiperidine-1-yl)phenyl) acrylamide]
6 | B (50 nM ≤ GI50 < 500 nM) | C=CC(=O)Nc1cc(Nc2cc(N3OCC[C@@H]3c3ccc(F)cc3F)ncn2)c(OC)cc1-n1cnc(C)c1 [compound 386, N-(5-((6-((R)-3-(2,4-difluorophenyl)isoxazolidine-2-yl)pyrimidine-4-yl)amino)-4-methoxy-2-(4-methyl-1H-imidazole-1-yl)phenyl)acrylamide]
7 | A (GI50 < 50 nM) | C=CC(=O)Nc1cc(Nc2cc(N3OCC[C@@H]3c3ccc(F)cc3F)ncn2)c(OC)cc1N1CCC(N2CCN(C3CC3)CC2)CC1 [Example 139, N-(2-(4-(4-cyclopropylpiperazine-1-yl)piperidine-1-yl)-5-((6-((R)-3-(2,4-difluorophenyl)isoxazolidine-2-yl)pyrimidine-4-yl)amino)-4-methoxyphenyl) acrylamide]
8 | B (50 nM ≤ GI50 < 500 nM) | C=CC(=O)Nc1cc(Nc2cc(N3OCC[C@@H]3c3ccc(C)nc3)ncn2)c(OC)cc1N1CCOCC1 [Example 43]
9 | A (GI50 < 50 nM) | C=CC(=O)Nc1cc(Nc2cc(N3OCC[C@@H]3c3ccc(F)cc3F)ncn2)c(OC)cc1N1CCC(N2CCN(CC)CC2)CC1 [compound 424, N-(5-((6-((R)-3-(2,4-difluorophenyl)isoxazolidine-2-yl)pyrimidine-4-yl)amino)-2-(4-(4-ethylpiperazine-1-yl)piperidine-1-yl)-4-methoxyphenyl) acrylamide]
10 | A (GI50 < 50 nM) | C=CC(=O)Nc1cc(Nc2cc(N3OCC[C@@H]3c3ccc(C)nc3)ncn2)c(OC)cc1N(C)CCN(C)C [Example 36, N-(2-((2-(dimethylamino)ethyl)(methyl)amino)-4-methoxy-5-((6-((R)-3-(6-methylpyridine-3-yl)isoxazolidine-2-yl)pyrimidine-4-yl)amino)phenyl) acrylamide]
11 | A (GI50 < 50 nM) | C=CC(=O)Nc1cc(Nc2cc(N3OCC[C@@H]3c3cccc(Cl)c3C)ncn2)c(OC)cc1N1CCC(N2CCO[C@@H](C)C2)CC1 [compound 529, N-(5-((6-((R)-3-(3-chloro-2-methylphenyl)isoxazolidine-2-yl)pyrimidine-4-yl)amino)-4-methoxy-2-(4-((S)-2-methylmorpholino)piperidine-1-yl)phenyl) acrylamide]
12 | B (50 nM ≤ GI50 < 500 nM) | C=CC(=O)Nc1cc(Nc2cc(N3OCC[C@@H]3c3ccc4ccccc4c3)ncn2)c(OC)cc1N1CCC(N(C)C)CC1 [compound 510, N-(2-(4-(dimethylamino)piperidine-1-yl)-4-methoxy-5-((6-((R)-3-(naphthalene-2-yl)isoxazolidine-2-yl)pyrimidine-4-yl)amino)phenyl)acrylamide]
13 | A (GI50 < 50 nM) | C=CC(=O)Nc1cc(Nc2cc(N3OCC[C@@H]3c3cccc(Cl)c3F)ncn2)c(OC)cc1N1CCC(N2CCN(C3CC3)CC2)CC1 [Example 62, N-(5-((6-((R)-3-(3-chloro-2-fluorophenyl)isoxazolidine-2-yl)pyrimidine-4-yl)amino)-2-(4-(4-cyclopropylpiperazine-1-yl)piperidine-1-yl)-4-methoxyphenyl) acrylamide]
14 | A (GI50 < 50 nM) | C=CC(=O)Nc1cc(Nc2cc(N3OCC[C@@H]3c3ccc(Cl)c(F)c3)ncn2)c(OC)cc1N1CCC(N2C[C@H]3C[C@@H]2CN3CC)CC1 [compound 859, N-(5-((6-((R)-3-(4-chloro-3-fluorophenyl)isoxazolidine-2-yl)pyrimidine-4-yl)amino)-2-(4-((1R,4R)-5-ethyl-2,5-diazabicyclo [2.2.1]heptane-2-yl)piperidine-1-yl)-4-methoxyphenyl) acrylamide]
15 | A (GI50 < 50 nM) | C#Cc1cccc([C@H]2CCON2c2cc(Nc3cc(NC(=O)C=C)c(N4CCC(N(C)C)CC4)cc3OC)ncn2)c1 [compound 647, N-(2-(4-(dimethylamino)piperidine-1-yl)-5-((6-((R)-3-(3-ethynylphenyl)isoxazolidine-2-yl)pyrimidine-4-yl)amino)-4-methoxyphenyl) acrylamide]
16 | A (GI50 < 50 nM) | C=CC(=O)Nc1cc(Nc2cc(N3OCC[C@@H]3c3ccc(F)cc3)ncn2)c(OC)cc1N1CCC(N2CCN(C3CC3)CC2)CC1 [Example 66, N-(2-(4-(4-cyclopropylpiperazine-1-yl)piperidine-1-yl)-5-((6-((R)-3-(4-fluorophenyl)isoxazolidine-2-yl)pyrimidine-4-yl)amino)-4-methoxyphenyl) acrylamide]
17 | C (500 nM ≤ GI50 < 5000 nM) | C=CC(=O)Nc1cc(Nc2cc(N3OCC[C@H]3Cc3ccccn3)ncn2)c(OC)cc1N1CCC(N2CCN(C3CC3)CC2)CC1 [compound 1058, N-(2-(4-(4-cyclopropylpiperazine-1-yl)piperidine-1-yl)-4-methoxy-5-((6-((R)-3-(pyridine-2-ylmethyl)isoxazolidine-2-yl)pyrimidine-4-yl)amino)phenyl)acrylamide]
18 | C (500 nM ≤ GI50 < 5000 nM) | C=CC(=O)Nc1cc(Nc2cc(N3OCC[C@@]3(C)c3ccccc3)ncn2)c(OC)cc1N1CCC(N2C[C@H]3C[C@@H]2CO3)CC1 [Example 269, N-(2-(4-((1R,4R)-2-oxa-5-azabicyclo[2.2.1]heptane-5-yl)piperidine-1-yl)-4-methoxy-5-((6-((S)-3-methyl-3-phenylisoxazolidine-2-yl)pyrimidine-4-yl)amino)phenyl) acrylamide]
19 | B (50 nM ≤ GI50 < 500 nM) | C#Cc1cccc([C@H]2CCON2c2cc(Nc3cc(NC(=O)C=C)c(N4CCC(N5CCC(N(C)C)CC5)CC4)cc3OC)ncn2)c1 [compound 655, N-(2-(4-(dimethylamino)-[1,4'-bipiperidine]-1'-yl)-5-((6-((R)-3-(3-ethynylphenyl)isoxazolidine-2-yl)pyrimidine-4-yl)amino)-4-methoxyphenyl) acrylamide]
20 | A (GI50 < 50 nM) | C=CC(=O)Nc1cc(Nc2cc(N3OCC[C@@H]3Cc3ccccc3)ncn2)c(OC)cc1N1CC2CC1CN2C (stereo partly drawn) [compound 969, N-(5-((6-((S)-3-benzylisoxazolidine-2-yl)pyrimidine-4-yl)amino)-4-methoxy-2-(5-methyl-2,5-diazabicyclo[2.2.1]heptane-2-yl)phenyl) acrylamide]
21 | A (GI50 < 50 nM) | C=CC(=O)Nc1cc(Nc2cc(N3OCC[C@@H]3c3ccc(F)c(F)c3)ncn2)c(OC)cc1N1CCC(N2CCN(C(C)=O)CC2)CC1 [compound 544, N-(2-(4-(4-acetylpiperazine-1-yl)piperidine-1-yl)-5-((6-((R)-3-(3,4-difluorophenyl)isoxazolidine-2-yl)pyrimidine-4-yl)amino)-4-methoxyphenyl) acrylamide]
22 | B (50 nM ≤ GI50 < 500 nM) | C=CC(=O)Nc1cc(Nc2cc(N3OCC[C@@H]3c3ccc(Cl)c(F)c3)ncn2)c(OC)cc1N(C)CCOC [compound 853, N-(5-((6-((R)-3-(4-chloro-3-fluorophenyl)isoxazolidine-2-yl)pyrimidine-4-yl)amino)-4-methoxy-2-((2-methoxyethyl)(methyl)amino)phenyl) acrylamide]
23 | A (GI50 < 50 nM) | C=CC(=O)Nc1cc(Nc2cc(N3OCC[C@@H]3Cc3cccc(F)c3Cl)ncn2)c(OC)cc1N1CCC(N2CCN(C3CC3)[C@H](C)C2)CC1 [compound 1036, N-(5-((6-((S)-3-(2-chloro-3-fluorobenzyl)isoxazolidine-2-yl)pyrimidine-4-yl)amino)-2-(4-((R)-4-cyclopropyl-3-methylpiperazine-1-yl)piperidine-1-yl)-4-methoxyphenyl) acrylamide]
24 | A (GI50 < 50 nM) | C=CC(=O)Nc1cc(Nc2cc(N3OCC[C@@H]3c3cccc(Cl)c3F)ncn2)c(OC)cc1N1CCC(N2CCN(C3CC3)[C@@H](C)C2)CC1 [Example 179, N-(5-((6-((R)-3-(3-chloro-2-fluorophenyl)isoxazolidine-2-yl)pyrimidine-4-yl)amino)-2-(4-((S)-4-cyclopropyl-3-methylpiperazine-1-yl)piperidine-1-yl)-4-methoxyphenyl) acrylamide]
